ChEMBL document CHEMBL5528088, “Design and Synthesis of Cyclolipopeptide Mimics of Dysoxylactam A and Evaluation of the Reversing Potencies against P-Glycoprotein-Mediated Multidrug Resistance” (J Med Chem, 2024)
Activity calls are given as the source filed them. The rule behind the calls is not given here.

How the values were obtained:
[1] = system: KBv200; assay: Inhibition of cell proliferation in human KBv200 cells at 10 uM incubated for 72 hrs by SRB assay relative to control; type: functional
[2] = system: KBv200; assay: Reversal effect on P-gp-mediated multidrug resistance in human KBv200 cells assessed as inhibition of cell proliferation incubated for 72 hrs by SRB assay; type: functional, cell-based; conditions: KBv200, 72 h
[3] = system: NCI/ADR-RES; assay: Reversal effect on P-gp-mediated multidrug resistance in human NCI/ADR-RES cells assessed as inhibition of cell proliferation incubated for 72 hrs by SRB assay; type: functional, cell-based
[4] = system: KBv200; assay: Antitumor activity against human KBv200 cells xenografted in Balb/cA nude mouse assessed as decrease in tumor size at 8 mg/kg, iv administered on day 0,4,8 and measured for 14 days; type: functional, organism-based; conditions: time 14.0 day
[5] = system: KBv200; assay: Inhibition of cell proliferation in human KBv200 cells incubated for 72 hrs by SRB assay; type: functional, cell-based; conditions: KBv200, 72 h
[6] = system: NCI/ADR-RES; assay: Reversal fold, ratio of PTX IC50 to PTX IC50 in presence of test compound for reversal effect on P-gp-mediated multidrug resistance in human NCI/ADR-RES cells incubated for 72 hrs by SRB assay; type: functional
[7] = system: KBv200; assay: Reversal fold, ratio of VNR IC50 to VNR IC50 in presence of test compound for human KBv200 cells incubated for 72 hrs by SRB assay; type: functional
[8] = Inhibition of ADR efflux in human KBv200 cells assessed as ADR accumulation at 1 uM incubated for 3 hrs by flow cytometry (reference value: 25.7 %); type: functional; parameters: scale not given: the % may be the effect or the level left
[9] = system: KBv200; assay: Reversal fold, ratio of ADR IC50 to ADR IC50 in presence of test compound for reversal effect on P-gp-mediated multidrug resistance in human KBv200 cells incubated for 72 hrs by SRB assay; type: functional
[10] = system: KBv200; assay: Inhibition of calcein AM uptake in human KBv200 cells at 10 uM incubated for 10 mins by flow cytometry; type: functional, cell-based
[11] = Inhibition of ADR efflux in human KBv200 cells assessed as ADR accumulation at 10 uM incubated for 3 hrs by flow cytometry (reference value: 25.7 %); type: functional; parameters: scale not given: the % may be the effect or the level left
[12] = target: T1, Broad substrate specificity ATP-binding cassette transporter ABCG2 (Homo sapiens, UniProt Q9UNQ0); assay: Inhibition of BCRP (unknown origin) expressed in HEK293 cells assessed as increase in mitoxantrone accumulation by flow cytometry; type: cell-based
T1 sequence (Q9UNQ0 whole entry): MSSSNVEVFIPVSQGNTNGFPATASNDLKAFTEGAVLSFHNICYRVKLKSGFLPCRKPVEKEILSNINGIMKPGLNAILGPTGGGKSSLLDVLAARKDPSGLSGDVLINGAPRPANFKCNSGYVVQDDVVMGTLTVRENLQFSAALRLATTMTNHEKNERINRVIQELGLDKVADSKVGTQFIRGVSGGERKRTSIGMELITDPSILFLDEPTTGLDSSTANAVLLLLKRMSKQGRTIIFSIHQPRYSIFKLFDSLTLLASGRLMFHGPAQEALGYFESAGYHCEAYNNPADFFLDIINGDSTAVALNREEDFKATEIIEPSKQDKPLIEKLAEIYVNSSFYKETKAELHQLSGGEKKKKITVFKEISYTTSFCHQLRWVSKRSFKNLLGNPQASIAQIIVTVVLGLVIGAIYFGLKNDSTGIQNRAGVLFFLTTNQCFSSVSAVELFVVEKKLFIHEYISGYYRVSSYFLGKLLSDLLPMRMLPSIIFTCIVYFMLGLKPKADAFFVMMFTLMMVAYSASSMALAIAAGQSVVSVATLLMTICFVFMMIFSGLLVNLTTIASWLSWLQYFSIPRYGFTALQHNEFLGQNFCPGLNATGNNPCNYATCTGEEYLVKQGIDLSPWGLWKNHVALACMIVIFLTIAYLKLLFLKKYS

[13] = system: KBv200; assay: Reversal fold, ratio of VNR IC50 to VNR IC50 in presence of test compound for reversal effect on P-gp-mediated multidrug resistance in human KBv200 cells incubated for 72 hrs by SRB assay; type: functional
[14] = system: KBv200; assay: Inhibition of ADR uptake in human KBv200 cells at 10 uM incubated for 10 mins by fluorescence microscopy; type: functional, cell-based
[15] = system: KBv200; assay: Inhibition of cell proliferation in human KBv200 cells assessed as inhibition of VNR at 10 uM incubated for 72 hrs in presence of VNR by SRB assay relative to control; type: functional
[16] = system: KBv200; assay: Reversal fold, ratio of PTX IC50 to PTX IC50 in presence of test compound for reversal effect on P-gp-mediated multidrug resistance in human KBv200 cells incubated for 72 hrs by SRB assay; type: functional
[17] = system: NCI/ADR-RES; assay: Reversal fold, ratio of ADR IC50 to ADR IC50 in presence of test compound for reversal effect on P-gp-mediated multidrug resistance in human NCI/ADR-RES cells incubated for 72 hrs by SRB assay; type: functional
[18] = system: KBv200; assay: Inhibition of ADR uptake in human KBv200 cells at 10 uM incubated for 10 mins by flow cytometry; type: functional, cell-based
[19] = Inhibition of ADR uptake in human KBv200 cells assessed as ADR accumulation at 1 uM incubated for 10 mins by flow cytometry (reference value: 6.2 %); type: functional; parameters: scale not given: the % may be the effect or the level left
[20] = system: KBv200; assay: Inhibition of Rho-123 uptake in human KBv200 cells at 10 uM incubated for 10 mins by flow cytometry; type: functional, cell-based
[21] = target: Multidrug resistance-associated protein 1 (Homo sapiens, UniProt P33527); assay: Inhibition of MRP1 (unknown origin) expressed in HEK293 cells assessed as increase in mitoxantrone accumulation by flow cytometry; type: cell-based
[22] = system: KBv200; assay: Effect on P-gp level in human KBv200 cells incubated for 24 hrs by qRT-PCR analysis; type: functional, cell-based
[23] = system: KBv200; assay: Cytotoxicity against human KBv200 cells at 10 uM incubated for 72 hrs by SRB assay relative to control; type: functional
[24] = system: KBv200; assay: Inhibition of ADR efflux in human KBv200 cells incubated for 3 hrs by fluorescence microscopy; type: functional, cell-based
[25] = Inhibition of ADR uptake in human KBv200 cells assessed as ADR accumulation at 10 uM incubated for 10 mins by flow cytometry (reference value: 6.2 %); type: functional; parameters: scale not given: the % may be the effect or the level left
[26] = system: NCI/ADR-RES; assay: Reversal fold, ratio of VNR IC50 to VNR IC50 in presence of test compound for reversal effect on P-gp-mediated multidrug resistance in human NCI/ADR-RES cells incubated for 72 hrs by SRB assay; type: functional

Sequence of Multidrug resistance-associated protein 1 (P33527 whole entry): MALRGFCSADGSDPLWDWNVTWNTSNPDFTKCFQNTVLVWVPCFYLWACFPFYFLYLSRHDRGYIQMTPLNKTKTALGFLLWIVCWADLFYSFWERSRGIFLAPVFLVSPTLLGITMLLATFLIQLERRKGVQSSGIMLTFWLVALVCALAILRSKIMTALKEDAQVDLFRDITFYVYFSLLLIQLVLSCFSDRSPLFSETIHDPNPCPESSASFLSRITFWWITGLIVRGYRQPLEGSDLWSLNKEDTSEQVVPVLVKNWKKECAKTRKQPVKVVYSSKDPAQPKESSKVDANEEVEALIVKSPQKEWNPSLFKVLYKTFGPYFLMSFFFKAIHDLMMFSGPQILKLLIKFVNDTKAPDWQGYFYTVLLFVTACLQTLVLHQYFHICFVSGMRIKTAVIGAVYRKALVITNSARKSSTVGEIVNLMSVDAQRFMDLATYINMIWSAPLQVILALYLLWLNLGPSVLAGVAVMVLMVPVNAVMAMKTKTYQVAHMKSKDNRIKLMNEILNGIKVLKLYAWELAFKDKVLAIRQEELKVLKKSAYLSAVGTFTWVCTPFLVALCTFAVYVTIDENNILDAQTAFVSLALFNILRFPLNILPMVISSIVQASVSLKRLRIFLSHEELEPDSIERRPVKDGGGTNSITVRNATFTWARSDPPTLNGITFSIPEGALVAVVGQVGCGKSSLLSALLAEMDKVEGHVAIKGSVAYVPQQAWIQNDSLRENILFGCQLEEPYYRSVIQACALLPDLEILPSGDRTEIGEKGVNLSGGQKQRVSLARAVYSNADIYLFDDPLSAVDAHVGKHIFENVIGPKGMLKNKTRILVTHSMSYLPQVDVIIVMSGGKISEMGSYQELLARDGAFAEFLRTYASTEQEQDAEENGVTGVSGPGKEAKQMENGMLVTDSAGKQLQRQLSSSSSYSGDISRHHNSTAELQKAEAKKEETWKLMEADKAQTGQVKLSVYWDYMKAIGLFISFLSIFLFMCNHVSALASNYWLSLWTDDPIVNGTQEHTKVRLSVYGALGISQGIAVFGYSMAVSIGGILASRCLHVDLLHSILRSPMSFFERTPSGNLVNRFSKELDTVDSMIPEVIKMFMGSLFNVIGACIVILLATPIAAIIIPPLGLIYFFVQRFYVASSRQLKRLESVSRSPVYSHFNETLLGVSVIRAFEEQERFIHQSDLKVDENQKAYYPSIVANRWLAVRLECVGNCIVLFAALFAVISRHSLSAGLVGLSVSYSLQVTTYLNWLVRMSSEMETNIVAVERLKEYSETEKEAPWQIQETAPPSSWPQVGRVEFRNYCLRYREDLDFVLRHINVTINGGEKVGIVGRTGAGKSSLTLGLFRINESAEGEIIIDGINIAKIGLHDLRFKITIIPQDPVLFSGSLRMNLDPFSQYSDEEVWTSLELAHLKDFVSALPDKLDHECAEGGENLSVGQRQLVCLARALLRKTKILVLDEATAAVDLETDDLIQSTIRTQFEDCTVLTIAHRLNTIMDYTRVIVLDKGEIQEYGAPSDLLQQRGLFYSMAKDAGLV

CCC1=C[C@@H]2CN(C1)Cc1c([nH]c3ccccc13)[C@@](C(=O)OC)(c1cc3c(cc1OC)N(C)[C@H]1[C@@](O)(C(=O)OC)[C@H](OC(C)=O)[C@]4(CC)C=CCN5CC[C@]31[C@@H]54)C2 [VINORELBINE]
inhibition at 10 µM [1]: 4.9%
IC50 [2]: 205 nM
IC50 [3]: 3720 nM
Activity [4]: Active
IC50 [5]: 298 nM

CC[C@H](C)C1OC(=O)[C@H](C(C)C)NC(=O)CCCCCCC[C@H](O)[C@@H](C)C[C@@H]1C (stereo partly specified)
Ratio IC50 [6]: 109.2
Ratio IC50 [7]: 85
Activity [8]: 29%
Ratio IC50 [9]: 12.4
inhibition [10]: Active
Activity [11]: 90.6%
inhibition (INH) [12]: Active
Ratio IC50 [13]: 64
inhibition [14]: inactive
inhibition at 10 µM [15]: 99.5%
Ratio IC50 [16]: 49.6
Ratio IC50 [17]: 23.9
inhibition [18]: inactive
Activity [19]: 7.4%
inhibition [20]: Active
inhibition (INH) [21]: Active
Activity [22]: inactive
Activity [23]: 9.7%
inhibition [24]: Active
Activity [25]: 91.7%
Ratio IC50 [26]: 65.3
